Read-outs that look alike come from different tables or passages of the source. Numbered stars: 1 amine (or outer) side, 2 acyl side, 3 side chain; on linkers, the order of the positions; unused ones are H or OH. Bridge positions count the residues as written; N and C are the ends. Square brackets hold non-standard residues; d marks the D form. Peptide text beside a SMILES is read from it. * marks the point of attachment. X14 = NC(=O)[C@H](CCCCNC(=O)CCCC[C@@H]1SC[C@@H]2NC(=O)N[C@@H]21)NC(=O)CCC(=O)NCCCOCCOCCOCCCNC(=O)CCC(=O)NCCCOCCOCCOCCCN*; X3 = O=C(O)CN1CCN(CC(=O)O)CCN(CC(=O)NCCCOCCOCCOCCCN*)CCN(CC(=O)O)CC1; DOTA = O=C(O)CN1CCN(CC(=O)O)CCN(CC(=O)*)CCN(CC(=O)O)CC1; Phe(3-CN) = N#Cc1cccc(C[C@H](N)C(=O)O)c1; Phe(4-Cl) = N[C@@H](Cc1ccc(Cl)cc1)C(=O)O; Ethylenediamine = C(CN[*:2])N[*:1]; X4 = O=C(CN1CCC(N[*:1])CC1)[*:2]; X5 = O=C(c1ccc(CN[*:1])nc1)[*:2]; X1 = O=C(CC1CCN([*:1])CC1)[*:2]; Lys(Me) = CNCCCC[C@H](N)C(=O)O; αMeD = C[C@](N)(CC(=O)O)C(=O)O; Suc = O=C(CCC(=O)[*:2])[*:1]; Tle = CC(C)(C)[C@H](N)C(=O)O; Propanoyl(3-OH) = O=C(CCO)*; Aib = CC(C)(N)C(=O)O; Ahx = NCCCCCC(=O)O; βAla = NCCC(=O)O
Legend:
[1] = molecular target: T1, PSMA-expressing C4-2 cells (Homo sapiens, UniProt Q04609); assay: FACS binding assay (competition with 50 nM PSM-0183); details: for IC50: read-out: pIC50 [C4-2] CAT (converted)
T1 construct: PSMA-expressing C4-2 cells (ATCC, Cat. No. CRL-3314) were cultured in RPMI-1640; host or cells: C4-2 cells
Summary of the method: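 Competition format: fluorescent tracer PSM-0183 (50 nM) displaced from PSMA on C4-2 cells by a test compound titration over 1 h at 4 °C. Bound tracer was quantified as flow-cytometric AF488 median fluorescence after washing. Four-parameter logistic fits of MFI data gave IC50 and pIC50.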

[2] = molecular target: T2, Fc-fusion protein of human PSMA (hPSMA-Fc) (Homo sapiens, UniProt Q04609); assay: Surface plasmon resonance assay (Biacore T200, single cycle kinetic); assay type: binding; details: hPSMA-Fc, 25° C., read-out: pKD CAT (converted)
T2 construct: purchased Acro Biosystems PSA-H5264
Summary of the method: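 KD, expressed as pKD, came from 1:1 Langmuir fits of reference- and buffer-blank-subtracted SPR data. The runs were single-cycle kinetics at 25° C in HBST/0.1% DMSO over human PSMA-Fc, captured to ~1000 RU on a peptide-coated CM5 surface and regenerated with 10 mM glycine pH 1.5.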

[3] = pIC50 category of FACS binding, C4-2 cells
[4] = pKD category for PSMA SPR activity assay
[5] = FACS binding, C4-2 cells, competition with 50 nM PSM-0183, category
[6] = SPR, single cycle kinetic, category
[7] = FACS binding, PSMA-expressing C4-2 cells, pIC50 category

T2 sequence (Q04609 44-750 limits assumed): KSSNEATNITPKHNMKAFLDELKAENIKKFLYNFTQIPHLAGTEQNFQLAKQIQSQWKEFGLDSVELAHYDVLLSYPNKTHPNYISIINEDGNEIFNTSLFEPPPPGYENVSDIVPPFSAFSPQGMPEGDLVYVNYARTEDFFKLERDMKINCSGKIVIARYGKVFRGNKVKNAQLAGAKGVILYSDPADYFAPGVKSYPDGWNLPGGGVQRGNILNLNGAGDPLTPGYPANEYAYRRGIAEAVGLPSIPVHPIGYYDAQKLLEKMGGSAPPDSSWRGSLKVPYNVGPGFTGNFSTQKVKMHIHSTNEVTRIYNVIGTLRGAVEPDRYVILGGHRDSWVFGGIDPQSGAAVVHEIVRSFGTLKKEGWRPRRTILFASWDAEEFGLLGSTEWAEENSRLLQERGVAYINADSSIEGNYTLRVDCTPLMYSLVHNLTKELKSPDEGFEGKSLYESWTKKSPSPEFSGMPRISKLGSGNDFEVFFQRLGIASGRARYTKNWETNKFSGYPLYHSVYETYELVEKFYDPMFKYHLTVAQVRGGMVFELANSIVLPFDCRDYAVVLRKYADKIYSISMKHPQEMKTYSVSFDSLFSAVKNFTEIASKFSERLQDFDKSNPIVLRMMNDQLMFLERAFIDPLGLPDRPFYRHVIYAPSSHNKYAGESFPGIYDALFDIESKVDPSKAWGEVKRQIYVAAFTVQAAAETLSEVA
T1 sequence (Q04609 whole entry): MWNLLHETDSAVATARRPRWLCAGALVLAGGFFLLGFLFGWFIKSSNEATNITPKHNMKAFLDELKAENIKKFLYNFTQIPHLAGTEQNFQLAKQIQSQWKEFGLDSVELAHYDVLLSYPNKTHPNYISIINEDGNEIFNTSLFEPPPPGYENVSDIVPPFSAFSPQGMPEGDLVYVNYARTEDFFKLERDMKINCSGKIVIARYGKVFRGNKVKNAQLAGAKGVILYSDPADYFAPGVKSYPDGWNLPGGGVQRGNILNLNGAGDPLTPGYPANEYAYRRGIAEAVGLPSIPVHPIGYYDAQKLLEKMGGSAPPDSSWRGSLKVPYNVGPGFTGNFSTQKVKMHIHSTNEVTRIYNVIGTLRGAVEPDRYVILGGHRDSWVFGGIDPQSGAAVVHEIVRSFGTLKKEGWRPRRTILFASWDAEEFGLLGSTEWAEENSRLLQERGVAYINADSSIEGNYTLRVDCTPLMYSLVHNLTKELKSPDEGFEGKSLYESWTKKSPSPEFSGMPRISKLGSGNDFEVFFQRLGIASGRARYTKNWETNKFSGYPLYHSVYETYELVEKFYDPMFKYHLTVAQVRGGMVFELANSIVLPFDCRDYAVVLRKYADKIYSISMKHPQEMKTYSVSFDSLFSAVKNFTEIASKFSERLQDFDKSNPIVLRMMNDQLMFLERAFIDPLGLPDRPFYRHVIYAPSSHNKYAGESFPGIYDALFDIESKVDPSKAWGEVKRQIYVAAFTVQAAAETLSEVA

| SMILES | IC50 [1, 3] | Kd [2, 4] | IC50 [1, 5] | Kd [2, 6] | other results |
| --- | --- | --- | --- | --- | --- |
| CNCCCC[C@@H]1NC(=O)[C@@H](NC(=O)[C@H](Cc2ccc(Cl)cc2)NC(=O)C(C)(C)NC(C)=O)CSSC[C@@H](C(=O)N[C@H](C(=O)NCCNC(=O)CN2CCN(CC(=O)O)CCN(CC(=O)O)CCN(CC(=O)O)CC2)C(C)(C)C)NC(=O)[C@H](CC(N)=O)NC(=O)C(C)(C)NC(=O)[C@H](CCCNC(=N)N)NC1=O [PSM-0472, Ac-Aib-Pcf-[Cys-Lys(Me)-Arg-Aib-Asn-Cys]-Tle-en-DOTA] (Ac-[Aib][Phe(4-Cl)]C[Lys(Me)]R[Aib]NC[Tle]-{Ethylenediamine-DOTA}; disulfide 3-8) | < 200 nM | < 12.6 nM | – | – | – |
| C[C@@H](O)[C@H](NC(=O)[C@@H](NC(=O)[C@@H]1CSSC[C@H](NC(=O)[C@H](Cc2ccccc2)NC(=O)C(C)(C)NC(=O)CCCCCNC(=O)CN2CCN(CC(=O)O)CCN(CC(=O)O)CCN(CC(=O)O)CC2)C(=O)N[C@@H](CCCCN)C(=O)N[C@@H](CCCNC(=N)N)C(=O)NC(C)(C)C(=O)N[C@@H](CC(N)=O)C(=O)N1)C(C)(C)C)C(N)=O [PSM-0513, DOTA-Ahx-Aib-Phe-[Cys-Lys-Arg-Aib-Asn-Cys]-Tle-Thr-NH2] ({DOTA-Ahx}-[Aib]FCKR[Aib]NC[Tle]T-NH2; disulfide 3-8) | < 200 nM | < 12.6 nM | – | – | – |
| C[C@@H](O)[C@H](NC(=O)[C@@H](NC(=O)[C@@H]1CSSC[C@H](NC(=O)[C@H](Cc2ccccc2)NC(=O)C(C)(C)NC(=O)[C@@H](NC(=O)CN2CCC(NC(=O)CN3CCN(CC(=O)O)CCN(CC(=O)O)CCN(CC(=O)O)CC3)CC2)[C@@H](C)O)C(=O)N[C@@H](CCCCN)C(=O)N[C@@H](CCCNC(=N)N)C(=O)NC(C)(C)C(=O)N[C@@H](CC(N)=O)C(=O)N1)C(C)(C)C)C(N)=O [PSM-0543, DOTA-APAc-Thr-Aib-Phe-[Cys-Lys-Arg-Aib-Asn-Cys]-Tle-Thr-NH2] ({DOTA}-[X4]T[Aib]FCKR[Aib]NC[Tle]T-NH2; disulfide 5-10) | < 200 nM | < 12.6 nM | – | – | – |
| C[C@@H](O)[C@H](NC(=O)[C@@H](NC(=O)[C@@H]1CSSC[C@H](NC(=O)[C@H](Cc2ccccc2)NC(=O)C(C)(C)NC(=O)CCO)C(=O)N[C@@H](CCCCN)C(=O)N[C@@H](CCCNC(=N)N)C(=O)NC(C)(C)C(=O)N[C@@H](CC(N)=O)C(=O)N1)C(C)(C)C)C(N)=O [PSM-0530, HPA-Aib-Phe-[Cys-Lys-Arg-Aib-Asn-Cys]-Tle-Thr-NH2] ({Propanoyl(3-OH)}-[Aib]FCKR[Aib]NC[Tle]T-NH2; disulfide 3-8) | < 200 nM | < 12.6 nM | – | – | – |
| CC(=O)NCc1ccc(C(=O)NC(C)(C)C(=O)N[C@@H](Cc2ccc(Cl)cc2)C(=O)N[C@H]2CSSC[C@@H](C(=O)N[C@H](C(=O)NCCNC(=O)CN3CCN(CC(=O)O)CCN(CC(=O)O)CCN(CC(=O)O)CC3)C(C)(C)C)NC(=O)[C@H](CC(N)=O)NC(=O)C(C)(C)NC(=O)[C@H](CCCNC(=N)N)NC(=O)[C@H](CCCCN)NC2=O)cn1 [PSM-0186, Ac-Pamp-Aib-Pcf-[Cys-Lys-Arg-Aib-Asn-Cys]-Tle-en-DOTA] (Ac-[X5][Aib][Phe(4-Cl)]CKR[Aib]NC[Tle]-{Ethylenediamine-DOTA}; disulfide 4-9) | – | – | < 200 nM | < 12.6 nM | – |
| CC(=O)N[C@H](C(=O)NC(C)(C)C(=O)N[C@@H](Cc1ccccc1)C(=O)N[C@H]1CSSC[C@@H](C(=O)N[C@H](C(=O)N[C@H](C(=O)N[C@@H](CC(=O)O)C(N)=O)[C@@H](C)O)C(C)(C)C)NC(=O)[C@H](CC(N)=O)NC(=O)[C@H](C)NC(=O)[C@H](CCCNC(=N)N)NC(=O)[C@H](CCCCN)NC1=O)[C@@H](C)O [PSM-0315, Ac-Thr-Aib-Phe-[Cys-Lys-arg-Als-Asn-Cys]-Tle-Thr-Asp-NH2] (Ac-T[Aib]FCKRANC[Tle]TD-NH2; disulfide 4-9) | – | – | – | – | pIC50 [C4-2] CAT [1, 7]: A (pIC50 values >6.7); Kd ([2]; PSMA SPR assay, pKD category): 12.6 to 126 nM |
| CC(=O)N[C@H](C(=O)NC(C)(C)C(=O)N[C@@H](Cc1ccc(Cl)cc1)C(=O)N[C@H]1CSSC[C@@H](C(=O)N[C@H](C(=O)NCCN)C(C)(C)C)NC(=O)[C@H](CC(N)=O)NC(=O)C(C)(C)NC(=O)[C@H](CCCNC(=N)N)NC(=O)[C@H](CCCCN)NC1=O)[C@@H](C)O [PSM-0393, Ac-Thr-Aib-Pcf-[Cys-Lys-Arg-Aib-Asn-Cys]-Tle-en] (Ac-T[Aib][Phe(4-Cl)]CKR[Aib]NC[Tle]-Ethylenediamine; disulfide 4-9) | < 200 nM | < 12.6 nM | – | – | – |
| CC(=O)N[C@H](C(=O)NC(C)(C)C(=O)N[C@@H](Cc1cccc(C#N)c1)C(=O)N[C@H]1CSSC[C@@H](C(=O)N[C@H](C(=O)N[C@H](C(N)=O)[C@@H](C)O)C(C)(C)C)NC(=O)[C@H](CC(N)=O)NC(=O)C(C)(C)NC(=O)[C@H](CCCNC(=N)N)NC(=O)[C@H](CCCCN)NC1=O)[C@@H](C)O [PSM-0555, Ac-Thr-Aib-Mnf-[Cys-Lys-Arg-Aib-Asn-Cys]-Tle-Thr-NH2] (Ac-T[Aib][Phe(3-CN)]CKR[Aib]NC[Tle]T-NH2; disulfide 4-9) | < 200 nM | < 12.6 nM | – | – | – |
| C[C@@H](O)[C@H](NC(=O)[C@@H](NC(=O)[C@@H]1CSSC[C@H](NC(=O)[C@H](Cc2ccc(Cl)cc2)NC(=O)C(C)(C)NC(=O)[C@@H](NC(=O)CC2CCN(C(=O)CN3CCN(CC(=O)O)CCN(CC(=O)O)CCN(CC(=O)O)CC3)CC2)[C@@H](C)O)C(=O)N[C@@H](CCCCN)C(=O)N[C@@H](CCCNC(=N)N)C(=O)N[C@H](CCC(=O)O)C(=O)N[C@@H](CC(N)=O)C(=O)N1)C(C)(C)C)C(N)=O [PSM-0260, DOTA-Cmp-Thr-Aib-Pcf-[Cys-Lys-Arg-glu-Asn-Cys]-Tle-Thr-NH2] ({DOTA}-[X1]T[Aib][Phe(4-Cl)]CKR[dE]NC[Tle]T-NH2; disulfide 5-10) | – | – | < 200 nM | < 12.6 nM | – |
| C[C@@H](O)[C@H](NC(=O)[C@@H](NC(=O)[C@@H]1CSSC[C@H](NC(=O)[C@H](Cc2ccc(Cl)cc2)NC(=O)[C@](C)(CC(=O)O)NC(=O)[C@@H](NC(=O)CC2CCN(C(=O)CN3CCN(CC(=O)O)CCN(CC(=O)O)CCN(CC(=O)O)CC3)CC2)[C@@H](C)O)C(=O)N[C@@H](CCCCN)C(=O)N[C@@H](CCCNC(=N)N)C(=O)NC(C)(C)C(=O)N[C@@H](CC(N)=O)C(=O)N1)C(C)(C)C)C(N)=O [PSM-0346, DOTA-Cmp-Thr-Amd-Pcf-[Cys-Lys-Arg-Aib-Asn-Cys]-Tle-Thr-NH2] ({DOTA}-[X1]T[αMeD][Phe(4-Cl)]CKR[Aib]NC[Tle]T-NH2; disulfide 5-10) | – | – | – | – | IC50 [1, 7]: 200 to 1260 nM; Kd ([2]; PSMA SPR assay, pKD category): 126 to 501 nM |
| CC(=O)N[C@H](C(=O)NC(C)(C)C(=O)N[C@@H](Cc1ccc(Cl)cc1)C(=O)N[C@H]1CSSC[C@@H](C(=O)N[C@H](C(=O)NCCC(N)=O)C(C)(C)C)NC(=O)[C@H](CC(N)=O)NC(=O)C(C)(C)NC(=O)[C@H](CCCNC(=N)N)NC(=O)[C@H](CCCCN)NC1=O)[C@@H](C)O [PSM-0514, Ac-Thr-Aib-Pcf-[Cys-Lys-Arg-Aib-Asn-Cys]-Tle-Bal-NH2] (Ac-T[Aib][Phe(4-Cl)]CKR[Aib]NC[Tle][βAla]-NH2; disulfide 4-9) | < 200 nM | < 12.6 nM | – | – | – |
| C[C@@H](O)[C@H](NC(=O)CC1CCN(C(=O)CN2CCN(CC(=O)O)CCN(CC(=O)O)CCN(CC(=O)O)CC2)CC1)C(=O)NC(C)(C)C(=O)N[C@@H](Cc1ccc(Cl)cc1)C(=O)N[C@H]1CSSC[C@@H](C(=O)N[C@H](C(=O)N[C@H](C(=O)NCCCOCCOCCOCCCNC(=O)CCC(=O)NCCCOCCOCCOCCCNC(=O)CCC(=O)N[C@@H](CCCCNC(=O)CCCC[C@@H]2SC[C@@H]3NC(=O)N[C@@H]32)C(N)=O)[C@@H](C)O)C(C)(C)C)NC(=O)[C@H](CC(N)=O)NC(=O)C(C)(C)NC(=O)[C@H](CCCNC(=N)N)NC(=O)[C@H](CCCCN)NC1=O [PSM-0250, DOTA-Cmp-Thr-Aib-Pcf-[Cys-Lys-Arg-Aib-Asn-Cys]-Tle-Thr-Ttds-Ttds-Lys(Bio)-NH2] ({DOTA}-[X1]T[Aib][Phe(4-Cl)]CKR[Aib]NC[Tle]T-X14; disulfide 5-10) | – | – | 200 to 1260 nM | < 12.6 nM | – |
| C[C@@H]1NC(=O)[C@H](CCCNC(=N)N)NC(=O)[C@H](CCCCN)NC(=O)[C@@H](NC(=O)[C@H](Cc2ccccc2)NC(=O)C(C)(C)NC(=O)[C@@H](NC(=O)CCC(=O)NCCCOCCOCCOCCCNC(=O)CN2CCN(CC(=O)O)CCN(CC(=O)O)CCN(CC(=O)O)CC2)[C@@H](C)O)CSSC[C@@H](C(=O)N[C@H](C(=O)N[C@H](C(=O)N[C@@H](CC(=O)O)C(N)=O)[C@@H](C)O)C(C)(C)C)NC(=O)[C@H](CC(N)=O)NC1=O [PSM-0193, DOTA-Ttds-Thr-Aib-Phe-[Cys-Lys-Arg-Ala-Asn-Cys]-Tle-Thr-Asp-NH2] ({X3-Suc}-T[Aib]FCKRANC[Tle]TD-NH2; disulfide 4-9) | – | – | < 200 nM | < 12.6 nM | – |

— US20260083865A1, “PROSTATE SPECIFIC MEMBRANE ANTIGEN (PSMA) LIGANDS AND USE THEREOF” (priority 2022, published 2026)
